The record followed here is patent US11104657B2, “Notch inhibitors for use in the treatment of t-cell acute lymphoblastic leukemia” (UNIVERSITÀ DEGLI STUDI DI ROMA “LA SAPIENZA”, priority 2016, dated 2021).

SMILES strings stand for the structures. Where only a bound is given, the exact number is not on record here.

The subject of one experiment is DND41 cells. As to the kind of experiment: MTS cell proliferation assay (IG50), DND41. The experiment is classed as cell-based, human. The settings on record: 36-hour treatments in DND41 cells; mean of triplicate experiments ± S.D.; Table 2; read-out: IG50 ± S.D. Here is the method:
In order to evaluate the biological implications of the compounds, their effect on cell proliferation/vitality was tested by determining the relative concentrations of growth inhibition (IG50) by means of the MTS cellular assay.
The cell lines DND41 (ACC 525, DSMZ, Braunschweig, GERMANY), KOPTK1 (RRID: CVCL_4965) were maintained in culture in RPMI-1640 (Gibco, Carlsbad, Calif., USA) with 10% fetal bovine serum. TALL-1 cells (ACC-521: DSMZ, Braunschweig, GERMANY) were cultured in RPMI-1640 (Gibco, Carlsbad, Calif., USA) supplemented with 20% fetal bovine serum, while HaCaT cells (ACC-771: DSMZ, Braunschweig, GERMANY) were maintained in Eagle's culture medium according to Dulbecco (Gibco, Carlsbad, Calif., USA) containing 10% fetal bovine serum. Cells were treated with the naturally-occurring compounds A-H or with compounds 1-17 for times and concentrations indicated in the text.
Cells were seeded in 96-well plates with a density of 5×10^5 cells/ml (5×10^4 cells per well) and treated for the times and the concentrations of the various compounds, as indicated in the text.
All treatments were carried out in triplicate, including control treatments. All treatment reactions contained a final concentration of 1% DMSO (D5879; Sigma-Aldrich, St Louis, Mo., USA). To quantify vitality, cells were assayed by the MTS CellTiter 96® AQueous One Solution Cell Proliferation Assay (G3580; Promega, Madison, Wis., USA). Absorbance was detected at 490 nm using the GloMax Multidetection System instrument (Promega, Madison, Wis., USA). Data were collected in the form of absorbance units (ABSs) and standardized to obtain the proliferation rate (MTS) through the equation: % cell proliferation=(ABScell culture+compound−ABSculture medium+compound/(ABScell culture+DMSO−ABSculture medium+DMSO)×100.
The 50% inhibition concentration was calculated using the GraphPad Prism software program (GraphPad Software Inc., La Jolla, Calif., USA).
Background: Tetrazolium dyes change colour on reduction, which living cells bring about.
For the compound `COc1ccc(C(=O)CCc2ccc(O)cc2)c(O)c1` [Compound 8b, 2′,4-dihydroxy-4′-methoxydihydrochalcone], the IC50 is greater than 50 µM.

Staying with this experiment, now noted: DND41 cells, doses of up to 50 μM.
For the compound `O=C1c2c(O)cc(O)cc2O[C@H](c2ccc(O)c(O)c2)[C@H]1O` [Compound A, (2R,3R)-2-(3,4-dihydroxyphenyl)-3,5,7-trihydroxy-2,3-dihydrochromen-4-one, reference compound], the “effect on cell proliferation” value is on record as “do not significantly affect cell proliferation”.

Staying with this experiment, now noted: Homo sapiens; 36-hour treatments in DND41 cells; mean of triplicate experiments ± S.D.; Table 1; read-out: IG50 S.D.
As for `O=C(/C=C/c1ccc(O)c(O)c1)c1ccc(O)cc1O` [Compound C, (E)-1-(2,4-dihydroxyphenyl)-3-(3,4-dihydroxyphenyl)prop-2-en-1-one, reference compound], the IC50 stood at 7.79 µM. As to `O=c1c(O)c(-c2ccccc2)oc2cc(O)cc(O)c12` [Compound H, 3,5,7-trihydroxy-2-phenylchromen-4-one, reference compound], the IC50 was 22.6 µM. As to `O=C1c2c(O)cc(O)cc2O[C@H](c2ccc(O)c(O)c2)[C@H]1O` [Compound A, (2R,3R)-2-(3,4-dihydroxyphenyl)-3,5,7-trihydroxy-2,3-dihydrochromen-4-one, reference compound], the IC50 is greater than 50 µM.

The same experiment, now with this note: Homo sapiens; 36-hour treatments in DND41 cells; mean of triplicate experiments ± S.D.; Table 2; read-out: IG50 ± S.D.
For `COc1ccc(C(=O)/C=C/c2ccc(OC3CCCCO3)c(OC)c2)c(O)c1` (stereo not drawn) [Compound 7a, 2′-hydroxy-3,4′-dimethoxy-4-(tetrahydropyran-2-yloxy)chalcone], the IC50 is 24.4 ± 1.76 µM. On to `COc1ccc(C(=O)/C=C/c2ccc(OC3CCCCO3)cc2)cc1` (stereo not drawn) [Compound 17a, 4′-methoxy-4-(tetrahydropyran-2-yloxy)chalcone], for which the IC50 is 28.8 ± 0.29 µM. For the compound `COc1ccc(C(=O)/C=C/c2ccc(OC3CCCCO3)cc2)c(OC)c1` (stereo not drawn) [Compound 16a, 2′,4′-dimethoxy-4-(tetrahydropyran-2-yloxy)chalcone], the IC50 was 32.6 ± 0.92 µM. As for `COc1ccc(C(=O)/C=C/c2ccccc2O)c(O)c1` [Compound 12, 2,2′-dihydroxy-4′-methoxychalcone], the IC50 came to 14.2 ± 0.58 µM. On to `COc1ccc(C(=O)/C=C/c2ccccc2)c(O)c1` [Compound 9, 2′-hydroxy-4′-methoxychalcone], for which the IC50 was determined as 11.1 ± 0.59 µM. On the same count and under the same terms, as for `COc1ccc(/C=C/C(=O)c2ccc(OC3CCCCO3)cc2O)cc1OC` (stereo not drawn) [Compound 6a, 2′-hydroxy-3,4-dimethoxy-4′-(tetrahydropyran-2-yloxy)chalcone], the figure is greater than 50 µM. Take `COc1cccc(/C=C/C(=O)c2ccc(OC)cc2O)c1` [Compound 10, 2′-hydroxy-3,4′-dimethoxychalcone]: the IC50 was found to be 21.3 ± 1.72 µM.

Turning to `COc1ccccc1C(=O)/C=C/c1ccc(O)cc1` [Compound 15, 4-hydroxy-2′-methoxychalcone], the IC50 turned out to be 16.8 ± 2.71 µM. In the case of `COc1ccc(C(=O)/C=C/c2ccc(OC3CCCCO3)cc2)c(O)c1` (stereo not drawn) [Compound 8a, 2′-hydroxy-4′-methoxy-4-(tetrahydropyran-2-yloxy)chalcone], the IC50 was found to be 48.5 ± 3.42 µM. With `COc1ccc(C(=O)/C=C/c2ccc(OC)c(OC)c2)c(OC)c1` [Compound 1, 2′,3,4,4′-tetramethoxychalcone], the IC50 was found to be 15 ± 3.04 µM. As to `COc1ccc(C(=O)/C=C/c2cccc(OC3CCCCO3)c2)c(O)c1` (stereo not drawn) [Compound 11a, 2′-hydroxy-4′-methoxy-3-(tetrahydropyran-2-yloxy)chalcone], the IC50 turned out to be 17.4 ± 1.2 µM. `COc1ccc(C(=O)/C=C/c2ccc(OC)c(OC)c2)c(O)c1` [Compound 2, 2′-hydroxy-3,4,4′-trimethoxychalcone]: the IC50 is 31 ± 5.98 µM. As for `COc1ccc(/C=C/C(=O)c2ccc(OC)cc2OC)cc1` [Compound 4, 2′,4,4′-trimethoxychalcone], the IC50 is 14.4 ± 2.56 µM. For the compound `COc1ccc(/C=C/C(=O)c2ccc(OC)cc2O)cc1` [Compound 3, 2′-hydroxy-4,4′-dimethoxychalcone], the IC50 is 47.5 ± 1.14 µM. For `COc1ccc(C(=O)/C=C/c2cccc(O)c2)c(O)c1` [Compound 11, 2′,3-dihydroxy-4′-methoxychalcone], the IC50 was 13.6 ± 1.76 µM. For the compound `COc1ccc(C(=O)/C=C/c2ccc(OC)c(O)c2)c(O)c1` [Compound 5, 2′,3-dihydroxy-4,4′-dimethoxychalcone], the IC50 was determined as 36.2 ± 10.6 µM. In the case of `O=C(/C=C/c1ccc(O)cc1)c1ccccc1O` [Compound 14, 2′,4-dihydroxychalcone], the IC50 amounted to 16.5 ± 0.9 µM.

Still in this experiment, the particulars now being: Homo sapiens; DND41 cells, MTS assay, 36 hours of treatment; read-out: IG50 (growth inhibition).
For the compound `O=C(/C=C/c1ccc(O)c(O)c1)c1ccc(O)cc1O` [Compound C, (E)-1-(2,4-dihydroxyphenyl)-3-(3,4-dihydroxyphenyl)prop-2-en-1-one, reference compound], the IC50 was 7.79 ± 1.73 µM. Turning to `O=c1c(O)c(-c2ccccc2)oc2cc(O)cc(O)c12` [Compound H, 3,5,7-trihydroxy-2-phenylchromen-4-one, reference compound], the IC50 stood at 22.6 ± 1.89 µM.
